Results: patent publication US8435978B2, “Substituted sulfonamide compounds” (Gruenenthal GmbH, priority 2006, dated 2013)

Columns and labels:
B1R receptor of the rat = target: T1, B1R receptor of the rat (Rattus norvegicus, UniProt P97583); experiment: Functional study on the bradykinin receptor 1 (B1R), FLIPR Ca2+ assay, rB1R cells; assay type: cell-based; details: agonist Des-Arg9-bradykinin 100 nM, % inhibition compared with the maximum achievable inhibition; for inhibition at 10 µM: CHO-K1, test substance 10 μM, read-out: B1R Antagonism, rat [10 μM] % Inhibition; for B1R Antagonism, rat [10 μM] % Inhibition: test substance 10 μM, rB1R CHO K1 cells
T1 construct: host or cells: CHO K1 cells (Chinese hamster ovary), stably transfected
T1 sequence (P97583 1-337): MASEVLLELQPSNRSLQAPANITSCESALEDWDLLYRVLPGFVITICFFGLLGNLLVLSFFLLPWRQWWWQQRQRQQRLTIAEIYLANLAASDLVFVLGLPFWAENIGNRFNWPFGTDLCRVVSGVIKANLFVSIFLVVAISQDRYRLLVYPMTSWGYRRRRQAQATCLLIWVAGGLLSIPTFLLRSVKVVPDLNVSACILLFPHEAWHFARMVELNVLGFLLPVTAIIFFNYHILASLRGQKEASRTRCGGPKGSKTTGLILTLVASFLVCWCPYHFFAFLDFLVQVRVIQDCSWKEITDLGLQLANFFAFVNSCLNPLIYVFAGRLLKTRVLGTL
Method in brief: (§1)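 FLIPR Ca2+ assay in recombinant CHO K1 cells (human or rat B1R), Fluo-4 dye; 10 μM compound, 10 min, then EC-level agonist per species (0.5 nM Lys-Des-Arg9-BK human / 100 nM Des-Arg9-BK rat). Output: % inhibition vs maximum.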

human B1R receptor = target: T2, human B1R receptor (Homo sapiens, UniProt P46663); experiment: Functional study on the bradykinin receptor 1 (B1R), FLIPR Ca2+ assay, hB1R cells; assay type: cell-based; details: agonist Lys-Des-Arg9-bradykinin 0.5 nM, % inhibition compared with the maximum achievable inhibition; for inhibition at 10 µM: CHO-K1, test substance 10 μM, read-out: B1R Antagonism, human [10 μM] % Inhibition; for B1R Antagonism, human [10 μM] % Inhibition: test substance 10 μM, hB1R CHO K1 cells
T2 construct: host or cells: CHO K1 cells (Chinese hamster ovary), stably transfected
T2 sequence (P46663 1-353): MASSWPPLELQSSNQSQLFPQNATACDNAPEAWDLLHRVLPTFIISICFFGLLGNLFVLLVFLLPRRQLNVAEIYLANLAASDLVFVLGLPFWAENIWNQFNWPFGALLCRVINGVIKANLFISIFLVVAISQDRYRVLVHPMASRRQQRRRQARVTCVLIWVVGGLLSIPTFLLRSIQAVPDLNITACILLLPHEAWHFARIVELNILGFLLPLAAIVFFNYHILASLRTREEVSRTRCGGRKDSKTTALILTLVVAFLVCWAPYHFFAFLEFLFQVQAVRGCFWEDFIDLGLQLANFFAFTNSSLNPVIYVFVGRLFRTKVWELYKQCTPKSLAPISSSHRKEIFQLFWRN
Method in brief: as §1

Structure (SMILES)	inhibition at 10 µM (B1R receptor of the rat) [%]	inhibition at 10 µM (human B1R receptor) [%]	B1R Antagonism, rat [10 μM] % Inhibition (B1R receptor of the rat) [%]	B1R Antagonism, human [10 μM] % Inhibition (human B1R receptor) [%]
CN1CCC(N2CCN(C(=O)COCC3CCCN3S(=O)(=O)c3ccc(Cl)c(Cl)c3)CC2)CC1 (stereo not drawn) [Example 62, 2-[1-(3,4-dichloro-phenylsulfonyl)-pyrrolidin-2-ylmethoxy]-1-[4-(1-methyl-piperidin-4-yl)-piperazin-1-yl]-ethanone]	34	59.6	–	–
CN(C)c1ccc(C2CCCCCN2C(=O)COCC2CCCCN2S(=O)(=O)c2cccc3ccccc23)cc1 (stereo not drawn) [Example 63, 1-[2-(4-dimethylamino-phenyl)-azepan-1-yl]-2-[1-(naphthyl-1-sulfonyl)-piperidin-2-ylmethoxy]-ethanone]	–	–	26.41	58.57
O=C(COCC1CCCCN1S(=O)(=O)c1cccc2ccccc12)N1CCCC1CN1CCCCC1 (stereo not drawn) [Example 64, 2-[1-(naphthyl-1-sulfonyl)-piperidin-2-ylmethoxy]-1-(2-piperidin-1-ylmethyl-pyrrolidin-1-yl)-ethanone]	–	–	25.48	57.92
O=C(COCC1Cc2ccccc2CN1S(=O)(=O)c1ccc(Cl)cc1Cl)N1CCC(N2CCOCC2)CC1 (stereo not drawn) [Example 65, 2-((2-(2,4-dichlorophenylsulfonyl)-1,2,3,4-tetrahydroisoquinolin-3-yl)methoxy)-1-(4-morpholinopiperidin-1-yl)ethanone]	93.2	55.4	–	–
CN(C)C1CCN(C(=O)COCCC2CCCCN2S(=O)(=O)c2cccc3ccccc23)C1 (stereo not drawn) [Example 66, 1-(3-dimethylamino-pyrrolidin-1-yl)-2-[1-(naphthyl-1-sulfonyl)-piperidin-2-ylethoxy]-ethanone]	–	–	38.64	55.38
Cc1cc(C)c(S(=O)(=O)N2Cc3ccccc3CC2COCC(=O)N2CCCN(Cc3ccccc3)CC2)c(C)c1 (stereo not drawn) [Example 67, 1-(4-benzyl-[1,4]diazepan-1-yl)-2-[2-(2,4,6-trimethyl-phenylsulfonyl)-1,2,3,4-tetrahydro-isoquinolin-3-ylmethoxy]-ethanone]	80.5	55	–	–
O=C(COCC1CCCCN1S(=O)(=O)c1ccc(Cl)c(Cl)c1)N1CCN(CC2CCCCC2)CC1 (stereo not drawn) [Example 68, 1-(4-cyclohexylmethyl-piperazin-1-yl)-2-[1-(3,4-dichloro-phenylsulfonyl)-piperidin-2-ylmethoxy]-ethanone]	0	54.1	–	–
COc1ccc(S(=O)(=O)N2Cc3ccccc3CC2COCC(=O)N2CCC(CCN3CCCCC3)CC2)cc1 (stereo not drawn) [Example 69]	–	–	82.89	53.64
O=C(COCC1CCCCN1S(=O)(=O)c1ccc(Cl)c(Cl)c1)NCC1CCCN(Cc2ccccc2)C1 (stereo not drawn) [Example 70, N-(1-benzyl-piperidin-3-ylmethyl)-2-[1-(3,4-dichloro-phenylsulfonyl)-piperidin-2-yl-methoxy]-acetamide]	42.2	53.3	–	–
O=C(COCC1CCCN1S(=O)(=O)c1c(Cl)cc(Cl)cc1Cl)NCc1ccc(N2CCCCC2)cc1 (stereo not drawn) [Example 71, N-(4-piperidin-1-yl-benzyl)-2-[1-(2,4,6-trichloro-phenylsulfonyl)-pyrrolidin-2-yl-methoxy]-acetamide]	95.2	53.2	–	–
O=C(COCC1CCCN1S(=O)(=O)c1ccc(Cl)c(Cl)c1)N1CCN(CCN2CCCCC2)CC1 (stereo not drawn) [Example 72, 2-((1-(3,4-dichlorophenylsulfonyl)pyrrolidin-2-yl)methoxy)-1-(4-(2-(piperidin-1-yl)-ethyl)piperazin-1-yl)ethanone]	13.2	52.6	–	–
CN(C)Cc1ccc(CNC(=O)COCC2CCCN2S(=O)(=O)c2c(Cl)cc(Cl)cc2Cl)cc1 (stereo not drawn) [Example 73, N-(4-dimethylaminomethyl-benzyl)-2-[1-(2,4,6-trichloro-phenylsulfonyl)-pyrrolidin-2-ylmethoxy]-acetamide]	106	51	–	–
O=C(COCC1CCCCN1S(=O)(=O)c1c(Cl)cc(Cl)cc1Cl)NCc1ccc(N2CCCCC2)cc1 (stereo not drawn) [Example 74, N-(4-piperidin-1-yl-benzyl)-2-[1-(2,4,6-trichloro-phenylsulfonyl)-piperidin-2-yl-methoxy]-acetamide]	103	50.4	–	–
Cc1cc(C)c(S(=O)(=O)N2Cc3ccccc3CC2COCC(=O)NCc2ccccc2N2CCN(C)CC2)c(C)c1 (stereo not drawn) [Example 75, N-[2-(4-methyl-piperazin-1-yl)-benzyl]-2-[2-(2,4,6-trimethyl-phenylsulfonyl)-1,2,3,4-tetrahydro-isoquinolin-3-ylmethoxy]-acetamide]	9.11	50.1	–	–
Cc1cc(C)c(S(=O)(=O)N2CCCCC2COCC(=O)Nc2cccc(CN3CCCCC3)c2)c(C)c1 (stereo not drawn) [Example 76, N-(3-piperidin-1-ylmethyl-phenyl)-2-[1-(2,4,6-trimethyl-phenylsulfonyl)-piperidin-2-ylmethoxy]-acetamide]	40.3	48.9	–	–

Next, values leading:

inhibition at 10 µM (B1R receptor of the rat) [%]	inhibition at 10 µM (human B1R receptor) [%]	B1R Antagonism, rat [10 μM] % Inhibition (B1R receptor of the rat) [%]	B1R Antagonism, human [10 μM] % Inhibition (human B1R receptor) [%]	Structure (SMILES)
105	48	–	–	COc1cccc(N2CCN(C(=O)COCC3CCCCN3S(=O)(=O)c3c(C)cc(C)cc3C)CC2)c1 (stereo not drawn) [Example 77, 1-[4-(3-methoxy-phenyl)-piperazin-1-yl]-2-[1-(2,4,6-trimethyl-phenylsulfonyl)-piperidin-2-ylmethoxy]-ethanone]
35.2	45.7	–	–	CN(C(=O)COCC1Cc2ccccc2CN1S(=O)(=O)c1ccc(Cl)cc1Cl)C1CCN(Cc2ccccc2)C1 (stereo not drawn) [Example 78, N-(1-benzyl-pyrrolidin-3-yl)-2-[2-(2,4-dichloro-phenylsulfonyl)-1,2,3,4-tetrahydro-isoquinolin-3-ylmethoxy]-N-methyl-acetamide]
54.5	45.5	–	–	O=C(COCC1Cc2ccccc2CN1S(=O)(=O)c1ccc(Cl)cc1Cl)N1CCCN(Cc2ccccc2)CC1 (stereo not drawn) [Example 79, 1-(4-benzyl-[1,4]diazepan-1-yl)-2-[2-(2,4-dichloro-phenylsulfonyl)-1,2,3,4-tetra-hydro-isoquinolin-3-ylmethoxy]-ethanone]
22.5	45.3	–	–	Cc1cc(C)c(S(=O)(=O)N2CCCCC2COCC(=O)NCc2ccccc2N2CCN(C)CC2)c(C)c1 (stereo not drawn) [Example 80, N-[2-(4-methyl-piperazin-1-yl)-benzyl]-2-[1-(2,4,6-trimethyl-phenylsulfonyl)-piperidin-2-ylmethoxy]-acetamide]
34.1	44.9	–	–	O=C(COCC1Cc2ccccc2N1S(=O)(=O)c1ccc(Cl)c(Cl)c1)NCc1ccc(CN2CCCC2)cc1 (stereo not drawn) [Example 81, 2-[1-(3,4-dichloro-phenylsulfonyl)-2,3-dihydro-1H-indol-2-ylmethoxy]-N-(4-pyrrolidin-1-ylmethyl-benzyl)-acetamide]
4.42	44.9	–	–	O=C(COCC1Cc2ccccc2CN1S(=O)(=O)c1ccc(Cl)c(Cl)c1)N1CCCC1CN1CCCCC1 (stereo not drawn) [Example 82, 2-[2-(3,4-dichloro-phenylsulfonyl)-1,2,3,4-tetrahydro-isoquinolin-3-ylmethoxy]-1-(2-piperidin-1-ylmethyl-pyrrolidin-1-yl)-ethanone]
30.8	43.9	–	–	Cc1cc(C)c(S(=O)(=O)N2Cc3ccccc3CC2COCC(=O)NCc2ccc(CN3CCCC3)cc2)c(C)c1 (stereo not drawn) [Example 83, N-(4-pyrrolidin-1-ylmethyl-benzyl)-2-[2-(2,4,6-trimethyl-phenylsulfonyl)-1,2,3,4-tetrahydro-isoquinolin-3-ylmethoxy]-acetamide]
0	43.7	–	–	COc1ccc(N2CCN(C(=O)COCC3CCCCN3S(=O)(=O)c3ccc(Cl)c(Cl)c3)CC2)cc1 (stereo not drawn) [Example 84, 2-[1-(3,4-dichloro-phenylsulfonyl)-piperidin-2-ylmethoxy]-1-[4-(4-methoxy-phenyl)-piperazin-1-yl]-ethanone]
40.8	43.7	–	–	CN(C)CCCN1CCN(C(=O)COCC2CCCCN2S(=O)(=O)c2ccc(Cl)c(Cl)c2)CC1 (stereo not drawn) [Example 85, 2-[1-(3,4-dichloro-phenylsulfonyl)-piperidin-2-ylmethoxy]-1-[4-(3-dimethylamino-propyl)-piperazin-1-yl]-ethanone]
